Residues, ends and D or L forms follow the SMILES beside them.
Tests used:
RASA1-N SH2 domain = biological target: T1, RASA1-N SH2 domain (Homo sapiens, UniProt P20936); test: FP saturation binding assay
T1 sequence (P20936 181-272 limits assumed): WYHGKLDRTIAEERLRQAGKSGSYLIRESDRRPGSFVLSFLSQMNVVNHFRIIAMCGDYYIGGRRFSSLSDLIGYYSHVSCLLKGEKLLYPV

PIK3R1-N SH2 domain = biological target: T2, PIK3R1-N SH2 domain (Homo sapiens, UniProt P27986); test: biochemical; format: binding; conditions: high-confidence ErbB interactions
T2 construct: thioredoxin; made in house; host or cells: E. coli BL21(DE3)pLysS
T2 sequence (P27986 333-428 limits assumed): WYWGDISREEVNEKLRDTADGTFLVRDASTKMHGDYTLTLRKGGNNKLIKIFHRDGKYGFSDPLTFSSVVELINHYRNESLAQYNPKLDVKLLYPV

[1] = biological target: T3, PLCG1-NC tandem SH2 domains (Homo sapiens, UniProt P19174); test: FP saturation binding assay; conditions: high-confidence ErbB interactions
T3 construct: the tandem protein was included in our analysis with all internal amino acids linking the domains; 6X His; thioredoxin; made in house; host or cells: E. coli BL21(DE3)pLysS
T3 sequence (P19174 550-756 limits assumed): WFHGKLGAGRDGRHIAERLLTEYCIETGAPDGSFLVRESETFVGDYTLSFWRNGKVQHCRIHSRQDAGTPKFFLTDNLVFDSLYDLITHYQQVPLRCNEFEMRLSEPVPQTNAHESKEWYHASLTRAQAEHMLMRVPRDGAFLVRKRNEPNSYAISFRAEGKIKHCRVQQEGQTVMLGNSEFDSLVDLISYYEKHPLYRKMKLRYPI

[2] = Protein PIK3R1-N, FP saturation binding, mean over replicate hits
[3] = Protein PLCG1-NC, FP saturation binding, mean over replicate hits
[4] = protein PLCG1-NC, FP, mean of replicate hits

Row | Compound | Kd (RASA1-N SH2 domain) | Kd (PIK3R1-N SH2 domain; [2]) | Kd [1, 3] | Kd [1, 4] | Kd (PIK3R1-N SH2 domain; protein PIK3R1-N, FP, mean of replicate hits) | Kd ([1]; protein PLCG1-NC, mean of replicate hits)
1 | CC(C)C[C@H](NC(=O)[C@H](Cc1ccc(OP(=O)(O)O)cc1)NC(=O)[C@H](CCC(=O)O)NC(=O)[C@H](CCC(=O)O)NC(=O)[C@H](C)NC(=O)[C@@H](N)CC(=O)O)C(=O)N[C@H](C(=O)N1CCC[C@H]1C(=O)N[C@@H](CCC(N)=O)C(=O)N[C@@H](CCC(N)=O)C(=O)NCC(=O)N[C@@H](Cc1ccccc1)C(=O)N[C@@H](CC(=O)O)C(=O)O)C(C)C [ErbB2 1023 13-mer] (HELM PEPTIDE1{D.A.E.E.[O=C([C@H](Cc1ccc(OP(=O)(O)O)cc1)N[*:1])[*:2]].L.V.P.Q.Q.G.F.D}$$$$V2.0) | 5.49 µM | 15.8 µM | 1.3 µM | – | – | –
2 | CC(C)[C@H](NC(=O)[C@H](CC(=O)O)NC(=O)[C@@H]1CCCN1C(=O)[C@H](CCC(N)=O)NC(=O)[C@H](CC(N)=O)NC(=O)[C@@H](NC(=O)[C@H](Cc1ccc(OP(=O)(O)O)cc1)NC(=O)[C@H](CCC(=O)O)NC(=O)[C@@H]1CCCN1C(=O)[C@H](CCC(N)=O)NC(=O)[C@@H]1CCCN1)C(C)C)C(=O)N[C@@H](CCCNC(=N)N)C(=O)N[C@@H](CC(=O)O)C(=O)O [ErbB2 1139 13-mer] (HELM PEPTIDE1{P.Q.P.E.[O=C([C@H](Cc1ccc(OP(=O)(O)O)cc1)N[*:1])[*:2]].V.N.Q.P.D.V.R.D}$$$$V2.0) | – | – | 3.38 µM | – | – | –
3 | CC(C)C[C@H](NC(=O)[C@H](CC(N)=O)NC(=O)[C@@H](N)CC(=O)O)C(=O)N[C@@H](Cc1ccc(O)cc1)C(=O)N[C@@H](Cc1ccc(OP(=O)(O)O)cc1)C(=O)N[C@@H](Cc1c[nH]c2ccccc12)C(=O)N[C@@H](CC(=O)O)C(=O)N[C@@H](CCC(N)=O)C(=O)N[C@@H](CC(=O)O)C(=O)N1CCC[C@H]1C(=O)N1CCC[C@H]1C(=O)N[C@@H](CCC(=O)O)C(=O)N[C@@H](CC(=O)O)C(=O)O [ErbB2 1222 13-mer] (HELM PEPTIDE1{D.N.L.Y.[O=C([C@H](Cc1ccc(OP(=O)(O)O)cc1)N[*:1])[*:2]].W.D.Q.D.P.P.E.D}$$$$V2.0) | 4.29 µM | 10.7 µM | 1.28 µM | – | – | –
4 | CSCC[C@H](NC(=O)[C@H](Cc1ccc(OP(=O)(O)O)cc1)NC(=O)[C@H](CCC(=O)O)NC(=O)[C@H](Cc1ccc(O)cc1)NC(=O)CNC(=O)[C@@H](N)CC(C)C)C(=O)N[C@@H](CC(=O)O)C(=O)N[C@H](C(=O)NCC(=O)N[C@@H](CO)C(=O)N[C@@H](CC(=O)O)C(=O)N[C@@H](CC(C)C)C(=O)N[C@@H](CC(=O)O)C(=O)O)C(C)C [ErbB3 1224 13-mer] (HELM PEPTIDE1{L.G.Y.E.[O=C([C@H](Cc1ccc(OP(=O)(O)O)cc1)N[*:1])[*:2]].M.D.V.G.S.D.L.D}$$$$V2.0) | 1.24 µM | – | – | 4.22 µM | – | –
5 | CSCC[C@H](NC(=O)[C@H](CCC(=O)O)NC(=O)[C@H](CCC(=O)O)NC(=O)[C@H](Cc1ccc(OP(=O)(O)O)cc1)NC(=O)CNC(=O)[C@H](CCC(N)=O)NC(=O)[C@H](CCC(=O)O)NC(=O)[C@@H](N)CO)C(=O)N[C@@H](CCCNC(=N)N)C(=O)N[C@@H](C)C(=O)N[C@@H](Cc1ccccc1)C(=O)N[C@@H](CCC(N)=O)C(=O)N[C@@H](CC(=O)O)C(=O)O [ErbB3 1289 13-mer] (HELM PEPTIDE1{S.E.Q.G.[O=C([C@H](Cc1ccc(OP(=O)(O)O)cc1)N[*:1])[*:2]].E.E.M.R.A.F.Q.D}$$$$V2.0) | 8.83 µM | – | – | 6.14 µM | 0.25 µM | –
6 | CSCC[C@H](NC(=O)[C@H](Cc1ccc(OP(=O)(O)O)cc1)NC(=O)CNC(=O)[C@H](CCC(=O)O)NC(=O)[C@H](CCC(=O)O)NC(=O)[C@H](CC(=O)O)NC(=O)[C@H](CC(C)C)NC(=O)[C@H](CCC(=O)O)NC(=O)CNC(=O)[C@H](CCCNC(=N)N)NC(=O)[C@@H]1CCCN1)C(=O)N[C@H](C(=O)N1CCC[C@H]1C(=O)N[C@@H](CCSC)C(=O)N[C@@H](CCCNC(=N)N)C(=O)N[C@@H](CC(=O)O)C(=O)N[C@@H](CCCCN)C(=O)N[C@@H](CC(=O)O)C(=O)O)[C@@H](C)O [ErbB4 1150 18-mer] (HELM PEPTIDE1{P.R.G.E.L.D.E.E.G.[O=C([C@H](Cc1ccc(OP(=O)(O)O)cc1)N[*:1])[*:2]].M.T.P.M.R.D.K.D}$$$$V2.0) | 0.61 µM | – | – | 2.82 µM | – | –
7 | CC(C)C[C@H](NC(=O)[C@H](Cc1ccc(OP(=O)(O)O)cc1)NC(=O)[C@H](CC(C)C)NC(=O)[C@@H]1CCCN1C(=O)[C@H](CCC(=O)O)NC(=O)[C@H](CC(N)=O)NC(=O)[C@@H](NC(=O)[C@H](Cc1ccc(O)cc1)NC(=O)[C@H](CCC(=O)O)NC(=O)[C@H](CC(=O)O)NC(=O)[C@@H](N)CCC(=O)O)C(C)C)C(=O)N[C@@H](CC(N)=O)C(=O)N[C@H](C(=O)N[C@@H](Cc1ccccc1)C(=O)N[C@@H](C)C(=O)N[C@@H](CC(N)=O)C(=O)N[C@H](C(=O)N[C@@H](CC(=O)O)C(=O)O)[C@@H](C)O)[C@@H](C)O [ErbB4 1208 18-mer] (HELM PEPTIDE1{E.D.E.Y.V.N.E.P.L.[O=C([C@H](Cc1ccc(OP(=O)(O)O)cc1)N[*:1])[*:2]].L.N.T.F.A.N.T.D}$$$$V2.0) | 6.4 µM | – | – | – | – | 0.97 µM
